In the supplement of paper PMC10307832:

Legend:
Test in all cases: relative viability (nuclei count vs DMSO), 5 days (fraction); higher = more cells survive
Everolimus + Decitabine = compound: CO[C@H]1C[C@@H]2CC[C@@H](C)[C@@](O)(O2)C(=O)C(=O)N2CCCC[C@H]2C(=O)O[C@H]([C@H](C)C[C@@H]2CC[C@@H](OCCO)[C@H](OC)C2)CC(=O)[C@H](C)/C=C(\C)[C@@H](O)[C@@H](OC)C(=O)[C@H](C)C[C@H](C)/C=C/C=C/C=C/1C [Everolimus] + Nc1ncn([C@H]2C[C@H](O)[C@@H](CO)O2)c(=O)n1 [Decitabine] (partner 2 µM)
Summary of the method: (§1)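 For relative viability, nuclei counts in treated wells were divided by those in vehicle wells. Lung cancer cell lines had been pin-tool dosed in 1536-well plates the day after seeding and cultured for 5 days, then fixed and stained in one step (final 0.05% Triton X-100, 1% formaldehyde, 1 ug/ml Hoechst) and imaged at 4×. Doses were one drug alone or a fixed anchor-drug dose plus five library-drug doses (not always all listed) in √10 steps, and values are duplicate-plate medians.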

Everolimus + Luminespib = compound: CO[C@H]1C[C@@H]2CC[C@@H](C)[C@@](O)(O2)C(=O)C(=O)N2CCCC[C@H]2C(=O)O[C@H]([C@H](C)C[C@@H]2CC[C@@H](OCCO)[C@H](OC)C2)CC(=O)[C@H](C)/C=C(\C)[C@@H](O)[C@@H](OC)C(=O)[C@H](C)C[C@H](C)/C=C/C=C/C=C/1C [Everolimus] + CCNC(=O)c1noc(-c2cc(C(C)C)c(O)cc2O)c1-c1ccc(CN2CCOCC2)cc1 [Luminespib] (partner 0.01 µM)
Summary of the method: as §1

Everolimus + Foretinib = compound: CO[C@H]1C[C@@H]2CC[C@@H](C)[C@@](O)(O2)C(=O)C(=O)N2CCCC[C@H]2C(=O)O[C@H]([C@H](C)C[C@@H]2CC[C@@H](OCCO)[C@H](OC)C2)CC(=O)[C@H](C)/C=C(\C)[C@@H](O)[C@@H](OC)C(=O)[C@H](C)C[C@H](C)/C=C/C=C/C=C/1C [Everolimus] + COc1cc2c(Oc3ccc(NC(=O)C4(C(=O)Nc5ccc(F)cc5)CC4)cc3F)ccnc2cc1OCCCN1CCOCC1 [Foretinib] (partner 0.25 µM)
Summary of the method: as §1

Everolimus + Dasatinib = compound: CO[C@H]1C[C@@H]2CC[C@@H](C)[C@@](O)(O2)C(=O)C(=O)N2CCCC[C@H]2C(=O)O[C@H]([C@H](C)C[C@@H]2CC[C@@H](OCCO)[C@H](OC)C2)CC(=O)[C@H](C)/C=C(\C)[C@@H](O)[C@@H](OC)C(=O)[C@H](C)C[C@H](C)/C=C/C=C/C=C/1C [Everolimus] + Cc1nc(Nc2ncc(C(=O)Nc3c(C)cccc3Cl)s2)cc(N2CCN(CCO)CC2)n1 [Dasatinib] (partner 0.075 µM)
Summary of the method: as §1

Cell Line | relative viability (Everolimus + Decitabine; first compound 0.01 µM) | relative viability (Everolimus + Decitabine; first compound 0.03162 µM) | relative viability (Everolimus + Decitabine; first compound 0.1 µM) | relative viability (Everolimus + Decitabine; first compound 0.3162 µM) | relative viability (Everolimus + Decitabine; first compound 1 µM) | relative viability (Everolimus + Luminespib; first compound 0.01 µM) | relative viability (Everolimus + Luminespib; first compound 0.03162 µM) | relative viability (Everolimus + Luminespib; first compound 0.1 µM) | relative viability (Everolimus + Luminespib; first compound 0.3162 µM) | relative viability (Everolimus + Luminespib; first compound 1 µM) | relative viability (Everolimus + Foretinib; first compound 0.01 µM) | relative viability (Everolimus + Foretinib; first compound 0.03162 µM) | relative viability (Everolimus + Foretinib; first compound 0.1 µM) | relative viability (Everolimus + Foretinib; first compound 0.3162 µM) | relative viability (Everolimus + Foretinib; first compound 1 µM) | relative viability (Everolimus + Dasatinib; first compound 0.01 µM) | relative viability (Everolimus + Dasatinib; first compound 0.03162 µM) | relative viability (Everolimus + Dasatinib; first compound 0.1 µM) | relative viability (Everolimus + Dasatinib; first compound 0.3162 µM) | relative viability (Everolimus + Dasatinib; first compound 1 µM)
201T | 0.758 | 0.757 | 0.635 | 0.705 | 0.716 | 0.85 | 0.816 | 0.838 | 0.823 | 0.874 | 0.996 | 0.913 | 0.895 | 0.795 | 0.865 | 0.592 | 0.595 | 0.521 | 0.547 | 0.519
A549 | 0.193 | 0.194 | 0.179 | 0.174 | 0.193 | – | – | – | – | – | 0.688 | 0.421 | 0.306 | 0.393 | 0.435 | – | – | – | – | –
A-427 | 0.436 | 0.509 | 0.45 | 0.486 | 0.561 | 0.584 | 0.611 | 0.651 | 0.779 | 0.729 | 0.742 | 0.624 | 0.639 | 0.684 | 0.757 | 0.527 | 0.526 | 0.397 | 0.462 | 0.489
ABC-1 | 0.637 | – | 0.603 | – | 0.883 | – | 0.342 | 0.316 | 0.371 | 0.355 | 0.82 | 0.826 | 0.645 | 0.699 | 0.739 | – | 0.393 | 0.413 | 0.455 | 0.513
BEN | 0.574 | 0.412 | 0.546 | 0.442 | 0.583 | 0.191 | 0.152 | 0.201 | 0.161 | 0.168 | 0.336 | 0.268 | 0.277 | 0.323 | 0.35 | 0.221 | 0.209 | 0.217 | 0.236 | 0.211
CAL-12T | – | – | – | – | – | 0.146 | 0.138 | 0.173 | 0.159 | 0.212 | 0.628 | 0.686 | 0.651 | 0.792 | 0.821 | 0.274 | 0.261 | 0.194 | 0.289 | 0.189
COR-L23 | 0.312 | 0.308 | 0.325 | 0.369 | 0.323 | 0.417 | 0.377 | 0.461 | 0.431 | 0.268 | 0.942 | 0.993 | 0.871 | 0.97 | 0.959 | 0.429 | 0.498 | 0.432 | 0.497 | 0.485
COR-L 105 | 0.516 | 0.529 | 0.522 | 0.502 | 0.548 | 0.405 | 0.392 | 0.333 | 0.313 | 0.365 | 0.775 | 0.71 | 0.787 | 0.709 | 0.952 | 0.25 | 0.262 | 0.211 | 0.253 | 0.233
Calu-6 | – | – | – | – | – | – | – | – | – | – | 0.845 | 0.785 | 0.811 | 0.77 | 0.742 | – | – | – | – | –
ChaGo-K-1 | 0.5 | 0.478 | 0.461 | 0.419 | 0.458 | 0.455 | 0.396 | 0.54 | 0.432 | 0.399 | 0.903 | 0.85 | 0.884 | 0.761 | 0.805 | 0.523 | 0.565 | 0.532 | 0.521 | 0.61
EBC-1 | – | – | – | – | – | – | – | – | – | – | 0.109 | 0.108 | 0.103 | 0.133 | 0.0957 | – | – | – | – | –
EKVX | – | 0.245 | 0.226 | 0.226 | 0.371 | 0.623 | 0.475 | 0.336 | 0.447 | 0.425 | 0.582 | 0.808 | 0.428 | 0.444 | 0.555 | 0.539 | 0.435 | 0.419 | 0.366 | 0.287
EMC-BAC-2 | 0.743 | 0.81 | 0.659 | – | 0.755 | 0.789 | 0.714 | 0.689 | 0.735 | 0.613 | 0.66 | 0.564 | 0.576 | 0.643 | 0.521 | 0.24 | 0.242 | 0.189 | 0.219 | 0.278
EPLC-272H | 0.312 | 0.291 | 0.259 | 0.306 | 0.327 | 0.162 | 0.176 | 0.188 | 0.203 | 0.263 | 0.451 | 0.414 | 0.443 | 0.417 | 0.489 | 0.235 | 0.266 | 0.213 | 0.227 | 0.276
H3255 | 0.409 | 0.433 | 0.322 | 0.371 | 0.315 | 0.594 | 0.584 | 0.479 | 0.504 | 0.498 | 0.572 | 0.621 | 0.458 | 0.294 | 0.565 | 0.35 | 0.266 | 0.332 | 0.239 | 0.335
HARA | 0.451 | 0.426 | 0.426 | 0.572 | 0.474 | 0.748 | 0.768 | – | 0.407 | 0.203 | 0.754 | 0.847 | – | 0.793 | 0.845 | 0.199 | 0.244 | – | 0.209 | 0.289
HCC-15 | 0.597 | 0.463 | 0.511 | 0.604 | 0.482 | 0.45 | 0.449 | 0.368 | 0.387 | 0.191 | 1.15 | 1.03 | 1.01 | 0.964 | 0.985 | 0.667 | 0.546 | 0.417 | 0.561 | 0.489
HCC-44 | 0.933 | 0.975 | 0.937 | 0.954 | 0.896 | 1.02 | 0.851 | 1.05 | 0.938 | 1.56 | – | – | – | – | – | – | – | – | – | –
